Data reported in ChEMBL document CHEMBL1201862, “PubChem BioAssay data set” (2004).
Several values for one entry are separate records, joined by “and”; a condition that tells them apart may be missing. Equal entries are not always repeated.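 All cell lines were grown in 96-well plates and treated with compound for 48 hours. GI50 = concentration required for 50% inhibition of growth.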 Activity calls are given as the source filed them. No stated cut-off is given here; in the data, active = GI50 up to about 1.1 µM and inactive = higher.

Columns and labels:
Assay in all cases: NCI-60 cell line screen, 48 h
HL-60 = test system: HL-60
UO-31 = test system: UO-31
LOX IMVI = test system: LOX IMVI
HCT-15 = test system: HCT-15
NCI-H23 = test system: NCI-H23
LXFL 529 = test system: LXFL 529
HOP-62 = test system: HOP-62
K562 = test system: K562
KM12 = test system: KM12
SF-268 = test system: SF-268
OVCAR-5 = test system: OVCAR-5
CAKI-1 = test system: CAKI-1
SK-MEL-2 = test system: SK-MEL-2
NCI-H460 = test system: NCI-H460
A549 = test system: A549
UACC-257 = test system: UACC-257
SN12C = test system: SN12C
MDA-MB-231 = test system: MDA-MB-231
Hs-578T = test system: Hs-578T
T47D = test system: T47D

| Structure (SMILES) | GI50 (HL-60) | GI50 (UO-31) | GI50 (LOX IMVI) | GI50 (HCT-15) | GI50 (NCI-H23) | GI50 (LXFL 529) | GI50 (HOP-62) | GI50 (K562) | GI50 (KM12) | GI50 (SF-268) | GI50 (OVCAR-5) | GI50 (CAKI-1) | GI50 (SK-MEL-2) | GI50 (NCI-H460) | GI50 (A549) | GI50 (UACC-257) | GI50 (SN12C) | GI50 (MDA-MB-231) | GI50 (Hs-578T) | GI50 (T47D) |
| --- | --- | --- | --- | --- | --- | --- | --- | --- | --- | --- | --- | --- | --- | --- | --- | --- | --- | --- | --- | --- |
| C1=Cc2nc1c(-c1ccccc1)c1nc(c(-c3ccccc3)c3ccc([nH]3)c(-c3ccccc3)c3ccc([nH]3)c2-c2ccccc2)C=C1 [TETRAPHENYLPORPHYRIN] | > 100 µM (inactive) | > 100 µM (inactive) | > 100 µM (inactive) | > 100 µM | > 100 µM (inactive) | > 100 µM (inactive) | > 100 µM (inactive) | > 100 µM (inactive) | > 100 µM (inactive) | > 100 µM (inactive) | > 100 µM (inactive) | > 100 µM (inactive) | > 100 µM (inactive) | > 100 µM (inactive) | > 100 µM (inactive) | > 100 µM (inactive) | > 100 µM (inactive) | – | – | – |
| Cc1nc(-c2nc(C)c(C(=O)NNC(=O)C[n+]3ccccc3)s2)sc1C(=O)NNC(=O)C[n+]1ccccc1 | 40.2 µM (inactive) | 25.9 µM (inactive) | 66.2 µM (inactive) | 56.4 µM | 45.7 µM (inactive) | 91 µM (inactive) | 33.1 µM (inactive) | 78.2 µM (inactive) | > 100 µM (inactive) | 39.7 µM (inactive) | > 100 µM (inactive) | 18.6 µM (inactive) | > 100 µM (inactive) | > 100 µM (inactive) | > 100 µM (inactive) | 94.2 µM (inactive) | 67.5 µM (inactive) | – | – | – |
| Nc1nnc2c(-c3ccccc3)n[nH]c2n1 | 9.4 µM (inactive) | 28.2 µM (inactive) | 50.6 µM (inactive) | 52.1 µM | 68.7 µM (inactive) | 77.4 µM (inactive) | – | 39.9 µM (inactive) | 23.2 µM (inactive) | 17.1 µM (inactive) | > 100 µM (inactive) | 17 µM (inactive) | 90.2 µM (inactive) | 26.3 µM (inactive) | 23.5 µM (inactive) | 50.7 µM (inactive) | 63 µM (inactive) | – | – | – |
| COC(=O)CC(C(C(C)=O)C(=O)OCc1ccccc1)N1C(=O)OC(c2ccccc2)C1c1ccccc1 (centres undefined) | 37.7 µM (inactive) and 32.2 µM (inactive) | – | 78.5 µM (inactive) | 52.2 µM and 62.5 µM | 46.9 µM (inactive) and 55.3 µM (inactive) | 49.1 µM (inactive) and 50.4 µM (inactive) | 54.1 µM (inactive) | 68.5 µM (inactive) and 71.3 µM (inactive) | 42 µM (inactive) and 35.6 µM (inactive) | 40.7 µM (inactive) and 54.5 µM (inactive) | – | 81.1 µM (inactive) and 83.4 µM (inactive) | 61.5 µM (inactive) and 83.4 µM (inactive) | > 100 µM (inactive) | 68.5 µM (inactive) and 76.2 µM (inactive) | – | > 100 µM (inactive) | – | – | – |
| COc1ccc(OC)c(/C=C/[N+](=O)[O-])c1 | – | 1.74 µM (inactive) and 2.77 µM (inactive) | 1.84 µM (inactive) and 948 nM (active) | 3.37 µM and 2.75 µM | 4.02 µM (inactive) and 2.41 µM (inactive) | 1.91 µM (inactive) | 4.93 µM (inactive) and 2.78 µM (inactive) | 2.59 µM (inactive) and 2.83 µM (inactive) | – | 3.01 µM (inactive) and 4.54 µM (inactive) | – | 2.85 µM (inactive) and 2.45 µM (inactive) | 2.41 µM (inactive) and 4.62 µM (inactive) | 3.24 µM (inactive) and 5.48 µM (inactive) | 3.24 µM (inactive) and 5.79 µM (inactive) | 4.1 µM (inactive) and 3.92 µM (inactive) | 2.44 µM (inactive) and 3.77 µM (inactive) | 1.87 µM (inactive) | 4 µM (inactive) | 3.01 µM (inactive) |
| COC(=O)CSc1ccccc1 | > 100 µM (inactive) | > 100 µM (inactive) | > 100 µM (inactive) | > 100 µM | > 100 µM (inactive) | > 100 µM (inactive) | > 100 µM (inactive) | > 100 µM (inactive) | > 100 µM (inactive) | > 100 µM (inactive) | > 100 µM (inactive) | > 100 µM (inactive) | 11.5 µM (inactive) | > 100 µM (inactive) | > 100 µM (inactive) | > 100 µM (inactive) | > 100 µM (inactive) | – | – | – |
| COc1ccc(NCc2cc(OC)c(OC)c(OC)c2)cc1 | 0.205 µM (active) | – | 0.417 µM (active) | 0.18 µM | 0.973 µM (active) | 0.408 µM (active) | 0.468 µM (active) | – | 0.201 µM (active) | 0.698 µM (active) | – | – | 0.466 µM (active) | 0.385 µM (active) | 0.597 µM (active) | – | 0.818 µM (active) | 0.596 µM (active) | 0.641 µM (active) | – |
| c1ccc2c(CNCCCCCCCCNCc3cccc4ccccc34)cccc2c1 | 1.86 µM (inactive) | 1.87 µM (inactive) | 1.23 µM (inactive) | 1.73 µM | 3.4 µM (inactive) | 1.82 µM (inactive) | 16.4 µM (inactive) | 0.679 µM (active) | 1.82 µM (inactive) | 7.52 µM (inactive) | 2 µM (inactive) | 1.98 µM (inactive) | 1.65 µM (inactive) | 1.48 µM (inactive) | 2.2 µM (inactive) | 1.87 µM (inactive) | 6.43 µM (inactive) | – | – | – |
| COc1cc2cc[n+]3c4cc(OC)c(OC)cc4c(C)cc3c2cc1OC | > 100 µM (inactive) | > 100 µM (inactive) | > 100 µM (inactive) | > 100 µM | > 100 µM (inactive) | 35.6 µM (inactive) | > 100 µM (inactive) | > 100 µM (inactive) | > 100 µM (inactive) | – | > 100 µM (inactive) | > 100 µM (inactive) | > 100 µM (inactive) | > 100 µM (inactive) | > 100 µM (inactive) | 88.7 µM (inactive) | > 100 µM (inactive) | – | – | – |
| C=CCN1/C(=C2\SC(=S)N(c3ccc(C)cc3)C2=O)Sc2c1nc[nH]c2=O | > 100 µM (inactive) | > 100 µM (inactive) | 33.9 µM (inactive) | 47 µM | > 100 µM (inactive) | > 100 µM (inactive) | > 100 µM (inactive) | > 100 µM (inactive) | – | > 100 µM (inactive) | > 100 µM (inactive) | > 100 µM (inactive) | 43.3 µM (inactive) | > 100 µM (inactive) | > 100 µM (inactive) | > 100 µM (inactive) | 77.1 µM (inactive) | – | – | – |
| O=C(c1ccccc1)C1OC12C(=O)Nc1ccccc12 (centres undefined) | 3.27 µM (inactive) | 26.5 µM (inactive) | 45 µM (inactive) | > 10 µM | 21.5 µM (inactive) | 16.5 µM (inactive) | 62.5 µM (inactive) | 4.5 µM (inactive) | – | 59.8 µM (inactive) | > 100 µM (inactive) | 20.8 µM (inactive) | 44.2 µM (inactive) | 41.7 µM (inactive) | 46.7 µM (inactive) | 35.7 µM (inactive) | 49.4 µM (inactive) | – | – | – |
| O=C1[C@@H]2C(c3ccccc3F)=NO[C@@H]2C(=O)N1c1ccc(Cc2ccc(N3C(=O)[C@H]4C(c5ccccc5F)=NO[C@H]4C3=O)cc2)cc1 | 14.4 µM (inactive) | > 100 µM (inactive) | > 100 µM (inactive) | > 100 µM | > 100 µM (inactive) | > 100 µM (inactive) | > 100 µM (inactive) | > 55.1 µM (inactive) | > 100 µM (inactive) | > 100 µM (inactive) | > 100 µM (inactive) | > 100 µM (inactive) | > 100 µM (inactive) | > 100 µM (inactive) | > 100 µM (inactive) | > 100 µM (inactive) | > 100 µM (inactive) | – | – | – |
| Nc1nc(N)c(CCCCc2ccc([N+](=O)[O-])cc2)c(N)n1 | 2.84 µM (inactive) | > 100 µM (inactive) | 6.62 µM (inactive) | 6.65 µM | 10.6 µM (inactive) | 47.8 µM (inactive) | > 100 µM (inactive) | 3.86 µM (inactive) | 36.3 µM (inactive) | > 50.4 µM (inactive) | 78.7 µM (inactive) | > 96.6 µM (inactive) | > 100 µM (inactive) | 5.68 µM (inactive) | 7.29 µM (inactive) | > 96.2 µM (inactive) | > 79.4 µM (inactive) | > 100 µM (inactive) | > 100 µM (inactive) | > 100 µM (inactive) |
| CCOC(=O)CCn1ncc(Cl)c(Cl)c1=O | 2.67 µM (inactive) | 15.7 µM (inactive) | 8.53 µM (inactive) | 2.15 µM | 2.27 µM (inactive) | 3.84 µM (inactive) | 21.4 µM (inactive) | 2.79 µM (inactive) | 4.86 µM (inactive) | 7.55 µM (inactive) | 16.7 µM (inactive) | 6.18 µM (inactive) | 8.53 µM (inactive) | 11.9 µM (inactive) | 15.6 µM (inactive) | 11.2 µM (inactive) | 13.7 µM (inactive) | – | – | – |
| O=C1/C(=C\c2ccccc2)C2/C(=C\c3ccccc3)C(=O)/C(=C\c3ccccc3)C2/C1=C\c1ccccc1 (centres undefined) | 0.608 µM (active) | 1.7 µM (inactive) | 0.316 µM (active) | 1.32 µM | 1.62 µM (inactive) | 0.681 µM (active) | 2.4 µM (inactive) | 0.565 µM (active) | 1.42 µM (inactive) | 2.58 µM (inactive) | 1.41 µM (inactive) | 2.67 µM (inactive) | 1.81 µM (inactive) | 1.9 µM (inactive) | 2.48 µM (inactive) | 1.79 µM (inactive) | 2.01 µM (inactive) | – | – | – |
| Cc1cc(N(CCC#N)CCC#N)ccc1/C=C1\N=C(c2cc([N+](=O)[O-])ccc2Cl)N(c2cccc(Cl)c2)C1=O | > 100 µM (inactive) | > 100 µM (inactive) | – | > 100 µM | > 100 µM (inactive) | > 100 µM (inactive) | > 100 µM (inactive) | 96.6 µM (inactive) | > 100 µM (inactive) | > 100 µM (inactive) | > 100 µM (inactive) | 3.08 µM (inactive) | > 100 µM (inactive) | > 100 µM (inactive) | > 100 µM (inactive) | > 100 µM (inactive) | > 100 µM (inactive) | – | – | – |
